Molecular target: T1, luciferase (Photinus pyralis, UniProt P08659)
T1 construct: purchased Analytical Luminescent Laboratories (ALL), Sparks, Md. #2005
Assay: luciferin-luciferase chemiluminescent reaction with reactant mixture dried on reagent disc
Assay type: biochemical
Source text: As discussed above, the inherent chemical and mechanical stability of the polymeric material is ideally suited for use as a medium on which to load the chemiluminescent reagents for the practice of the present invention. A number of commercial enterprises market luciferin-luciferase reagent kits for use in chemiluminescent reaction assays. One that the inventors have found to be particularly well suited for the practice of the present invention is the “Firelight®” luciferin-luciferase reagent kit provided by Analytical Luminescent Laboratories (ALL) of Sparks, Md. […] This provides for a greater intensity of luminescence, and faster reaction kinetics.
In the preparation of the reagent discs 48, the reactant concentrate is loaded, preferably drop-wise, onto the Merocel® CF50, obtained in pre-sterilized sheets. The coated sheets are then dried at ambient temperatures under a vacuum, and the reagent discs are cut from the sheets in an appropriate size and shape. Alternatively, discs may be cut first and then loaded with appropriate reagent solution. When loaded in such fashion with the reagent mixture, reagent discs, approximately 6 mm in diameter and approximately 1.5 mm in height, carry approximately 0.5 mg of the dried reactant mixture.
It is recognized in the prior art that trehalose will stabilize delicate materials while they are freeze-dried. […]

T1 sequence (P08659 whole entry): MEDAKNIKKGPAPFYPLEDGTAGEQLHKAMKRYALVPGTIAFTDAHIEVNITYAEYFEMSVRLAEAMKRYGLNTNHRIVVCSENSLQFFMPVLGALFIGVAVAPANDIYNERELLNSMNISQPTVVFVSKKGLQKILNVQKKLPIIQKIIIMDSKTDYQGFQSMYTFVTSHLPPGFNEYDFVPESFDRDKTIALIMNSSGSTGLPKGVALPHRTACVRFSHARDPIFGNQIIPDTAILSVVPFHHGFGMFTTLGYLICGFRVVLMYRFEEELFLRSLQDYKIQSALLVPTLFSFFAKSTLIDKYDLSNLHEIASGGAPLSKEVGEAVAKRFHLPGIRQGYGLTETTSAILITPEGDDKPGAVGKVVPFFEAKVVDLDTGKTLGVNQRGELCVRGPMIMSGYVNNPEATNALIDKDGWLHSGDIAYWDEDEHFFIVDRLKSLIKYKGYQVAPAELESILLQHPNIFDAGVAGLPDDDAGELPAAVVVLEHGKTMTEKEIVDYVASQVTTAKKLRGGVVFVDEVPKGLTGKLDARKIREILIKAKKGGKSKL

OC[C@H]1O[C@H](O[C@H]2O[C@H](CO)[C@@H](O)[C@H](O)[C@H]2O)[C@H](O)[C@@H](O)[C@@H]1O [trehalose, a-D-glucopyranosyl-a-D-glucopyranoside]
observed luminescent intensities versus the same loading of reagents without the trehalose (6 mm×1.5 mm reagent disc, total loading approximately 4 mg, FIG. 12): more than twice | biochemical activity of the luciferase component of the reagent mixture (trehalose added to loading solution at levels approaching its saturation solubility): up to a doubling, or more

Reference: patent publication US6541194B2, “Method for the detection of the presence of chemical species known to inhibit a chemiluminescent reaction” (Neogen Corporation, priority 2000, dated 2003)
